Measurements reported in patent publication US20260078108A1, “SOLID FORMS OF A ROCK INHIBITOR” (REDX PHARMA PLC, priority 2022, published 2026).

Legend:
PKCeta = PKCeta (Homo sapiens, UniProt P24723); experiment: Kinase panel 33P-ATP filter assay, PKCeta; type: biochemical; conditions: HCl salt tested; ATP Conc. 15 μM (Km); read-out: Compound IC50 (nM) PKCeta
Experimental: (§1) The HCl salts of S enantiomer and the R enantiomer of compound A were tested against a panel of kinases.
(§2) Compounds were received as powder and resuspended to 10 mM DMSO stock. Compounds were tested in 10-dose IC50 mode with a 3-fold serial dilution starting at 10 μM. Control compound, staurosporine, was tested in 10-dose IC50 mode with 4-fold serial dilution starting at 20 μM.
(§3) Reaction Conditions: Buffer Conditions: 20 mM HEPES ((4-(2-hydroxyethyl)-1-piperazineethanesulfonic acid; pH 7.5), 10 mM MgCl2, 1 mM EGTA (Ethyleneglycol-bis(p-aminoethyl)-N,N,N′,N′-tetraacetic Acid), 0.01% Brij35, 0.02 mg/ml BSA (Bovine serum albumin), 0.1 mM Na3VO4, 2 mM DTT (Dithiothreitol), 1% DMSO. Reaction Procedure: 1. Prepare indicated substrate in freshly prepared reaction buffer. 2. Deliver required cofactors to the substrate solution above. 3. Deliver indicated kinase into the substrate solution and mix gently. 4. Deliver compounds in DMSO into the kinase reaction mixture utilizing acoustic technology (Echo550). 5. Deliver ^33P-ATP (specific activity 0.01 μCi/μl final) into the reaction mixture to initiate the reaction. 6. Incubate kinase reaction for 120 minutes at room temperature. 7. […] Data Analysis: Kinase activity data were expressed as the percent remaining kinase activity in test samples compared to vehicle (dimethyl sulfoxide) reactions. […]

Haspin = target: T1, Haspin (Homo sapiens, UniProt Q8TF76); experiment: Kinase panel 33P-ATP filter assay, Haspin; type: biochemical; conditions: HCl salt tested; ATP Conc. 20 μM (Km); read-out: Compound IC50 (nM) Haspin
T1 sequence (Q8TF76 1-798): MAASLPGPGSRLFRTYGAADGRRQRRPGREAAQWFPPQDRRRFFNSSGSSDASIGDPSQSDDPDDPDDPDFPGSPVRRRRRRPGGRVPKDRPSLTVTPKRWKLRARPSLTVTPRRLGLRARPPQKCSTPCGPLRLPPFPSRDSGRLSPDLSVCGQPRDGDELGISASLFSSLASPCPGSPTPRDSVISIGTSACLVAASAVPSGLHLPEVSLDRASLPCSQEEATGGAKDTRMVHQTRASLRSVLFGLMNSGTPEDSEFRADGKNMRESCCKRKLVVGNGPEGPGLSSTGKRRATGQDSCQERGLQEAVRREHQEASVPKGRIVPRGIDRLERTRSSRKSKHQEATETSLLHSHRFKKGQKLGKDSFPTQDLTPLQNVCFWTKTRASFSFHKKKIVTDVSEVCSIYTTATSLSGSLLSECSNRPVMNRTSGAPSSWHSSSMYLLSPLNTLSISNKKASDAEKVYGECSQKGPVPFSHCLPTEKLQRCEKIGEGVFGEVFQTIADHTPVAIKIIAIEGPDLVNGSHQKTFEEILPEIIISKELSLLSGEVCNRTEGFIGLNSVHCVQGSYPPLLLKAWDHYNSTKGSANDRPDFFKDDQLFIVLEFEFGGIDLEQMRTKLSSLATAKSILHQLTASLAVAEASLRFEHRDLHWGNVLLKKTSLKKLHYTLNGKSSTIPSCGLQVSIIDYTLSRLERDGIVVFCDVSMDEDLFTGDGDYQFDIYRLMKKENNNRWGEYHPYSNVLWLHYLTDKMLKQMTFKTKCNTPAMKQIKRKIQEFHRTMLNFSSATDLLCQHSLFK
Experimental: as §1, §2, §3

CB1 (h) [1] = target: T2, CB1 (h) (Homo sapiens, UniProt P21554); experiment: CEREP panel CB1 (h) agonist effect, cAMP HTRF; type: cell-based; conditions: HCl salt tested, CHO cells
T2 construct: expressed in transfected cells; host or cells: CHO cells
Source text: (§4) The use of in vitro pharmacological screening against a diverse range of targets (receptors, ion channels, enzymes and transporters) is used to identify undesirable off-target activity that may cause adverse drug reactions in humans. Screening panels (e.g. SafetyScreen44™ Panel, Eurofins) comprise a selection of off-targets linked with known issues in humans that could hinder or halt the development of drug candidates or market withdrawal if discovered after a drug is approved. The HCl salts of the S enantiomer and the R enantiomer of compound A were tested against a panel of such targets.
(§5) The tests were carried out according to the methods described in the following tables and indicated literature references.

CB2 (h) = target: T3, CB2 (h) (Homo sapiens, UniProt P34972); experiment: CEREP panel CB2 (h) agonist effect, cAMP HTRF; type: cell-based; conditions: HCl salt tested, CHO cells
T3 construct: expressed in transfected cells; host or cells: CHO cells
Source text: as §4, §5

M2 (h) = target: T4, M2 (h) (Homo sapiens, UniProt P08172); experiment: CEREP panel M2 (h) agonist effect, cAMP HTRF; type: cell-based; conditions: HCl salt tested, CHO cells
T4 construct: expressed in transfected cells; host or cells: CHO cells
T4 sequence (P08172 1-466): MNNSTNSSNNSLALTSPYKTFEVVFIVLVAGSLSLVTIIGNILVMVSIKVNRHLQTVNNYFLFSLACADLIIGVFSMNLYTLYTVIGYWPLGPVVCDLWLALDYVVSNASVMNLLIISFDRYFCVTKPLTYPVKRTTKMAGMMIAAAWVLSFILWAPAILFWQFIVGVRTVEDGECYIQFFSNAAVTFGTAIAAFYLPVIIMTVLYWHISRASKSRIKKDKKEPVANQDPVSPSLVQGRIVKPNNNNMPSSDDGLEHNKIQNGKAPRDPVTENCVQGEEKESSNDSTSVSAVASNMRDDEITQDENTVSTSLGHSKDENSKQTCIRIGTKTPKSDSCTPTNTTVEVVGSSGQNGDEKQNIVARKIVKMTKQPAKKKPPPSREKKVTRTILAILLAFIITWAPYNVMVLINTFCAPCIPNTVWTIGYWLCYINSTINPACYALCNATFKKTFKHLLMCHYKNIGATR
Source text: as §4, §5

CB1 (h) [2] = target: T2, CB1 (h); experiment: CEREP panel CB1 (h) antagonist effect, cAMP HTRF; type: cell-based; conditions: HCl salt tested; CHO cells, CP 55940 (1 nM)
Source text: as §4, §5

ROCK1 = ROCK1 (Homo sapiens, UniProt Q13464); experiment: Activity against kinase ROCK1; type: biochemical; conditions: comparison of enantiomers
PKCtheta = PKCtheta (Homo sapiens, UniProt Q04759); experiment: Kinase panel 33P-ATP filter assay, PKCtheta; type: biochemical; conditions: HCl salt tested; ATP Conc. 30 μM (Km); read-out: Compound IC50 (nM) PKCtheta
Experimental: as §1, §2, §3

T2 sequence (P21554 whole entry): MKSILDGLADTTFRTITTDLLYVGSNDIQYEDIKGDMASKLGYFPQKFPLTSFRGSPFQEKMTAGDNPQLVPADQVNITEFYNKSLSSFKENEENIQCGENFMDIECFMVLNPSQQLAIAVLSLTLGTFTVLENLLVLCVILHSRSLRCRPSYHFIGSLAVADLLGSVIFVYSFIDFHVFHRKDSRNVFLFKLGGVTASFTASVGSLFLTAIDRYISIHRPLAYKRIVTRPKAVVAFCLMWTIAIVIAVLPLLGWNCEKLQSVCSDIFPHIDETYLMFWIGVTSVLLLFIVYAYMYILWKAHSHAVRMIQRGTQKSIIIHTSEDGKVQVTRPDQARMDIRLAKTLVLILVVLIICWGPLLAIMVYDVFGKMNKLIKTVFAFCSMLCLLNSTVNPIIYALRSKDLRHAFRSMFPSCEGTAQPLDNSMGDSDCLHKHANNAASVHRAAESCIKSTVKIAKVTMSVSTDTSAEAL
Chain of ROCK1 (Q13464 whole entry, species assumed): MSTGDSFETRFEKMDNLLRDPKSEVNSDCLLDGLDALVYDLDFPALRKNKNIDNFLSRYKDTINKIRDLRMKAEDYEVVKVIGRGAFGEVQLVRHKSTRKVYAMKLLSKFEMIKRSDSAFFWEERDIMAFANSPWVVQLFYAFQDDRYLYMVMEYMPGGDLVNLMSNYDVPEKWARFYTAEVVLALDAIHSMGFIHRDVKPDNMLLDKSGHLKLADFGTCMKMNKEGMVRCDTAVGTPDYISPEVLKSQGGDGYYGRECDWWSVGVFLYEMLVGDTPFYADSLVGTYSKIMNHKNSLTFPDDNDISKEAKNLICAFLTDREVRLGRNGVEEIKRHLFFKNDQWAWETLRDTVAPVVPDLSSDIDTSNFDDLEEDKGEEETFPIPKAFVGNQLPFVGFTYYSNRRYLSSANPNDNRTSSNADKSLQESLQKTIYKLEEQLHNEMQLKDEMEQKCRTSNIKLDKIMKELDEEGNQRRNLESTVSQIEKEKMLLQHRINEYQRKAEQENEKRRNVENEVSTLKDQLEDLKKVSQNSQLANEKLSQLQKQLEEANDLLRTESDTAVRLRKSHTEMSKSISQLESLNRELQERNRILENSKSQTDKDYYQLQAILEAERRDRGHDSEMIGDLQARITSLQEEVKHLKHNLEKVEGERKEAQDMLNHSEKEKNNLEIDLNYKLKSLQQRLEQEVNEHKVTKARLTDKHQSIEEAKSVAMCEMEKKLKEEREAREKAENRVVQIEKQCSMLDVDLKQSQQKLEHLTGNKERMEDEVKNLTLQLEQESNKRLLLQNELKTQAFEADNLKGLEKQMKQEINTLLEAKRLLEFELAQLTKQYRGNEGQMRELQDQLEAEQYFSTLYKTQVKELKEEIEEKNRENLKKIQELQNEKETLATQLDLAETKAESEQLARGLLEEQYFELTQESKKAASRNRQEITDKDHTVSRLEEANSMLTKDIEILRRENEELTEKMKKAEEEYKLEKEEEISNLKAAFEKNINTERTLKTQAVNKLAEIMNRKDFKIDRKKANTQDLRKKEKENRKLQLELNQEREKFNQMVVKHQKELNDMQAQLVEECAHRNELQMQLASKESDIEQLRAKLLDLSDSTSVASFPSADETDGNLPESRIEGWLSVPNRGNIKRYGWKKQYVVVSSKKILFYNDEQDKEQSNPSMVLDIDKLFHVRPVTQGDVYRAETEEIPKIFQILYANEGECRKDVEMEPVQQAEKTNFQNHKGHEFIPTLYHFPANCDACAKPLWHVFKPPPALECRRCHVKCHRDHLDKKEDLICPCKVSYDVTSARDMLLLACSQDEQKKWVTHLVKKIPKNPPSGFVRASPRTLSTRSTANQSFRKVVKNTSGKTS
T3 sequence (P34972 whole entry): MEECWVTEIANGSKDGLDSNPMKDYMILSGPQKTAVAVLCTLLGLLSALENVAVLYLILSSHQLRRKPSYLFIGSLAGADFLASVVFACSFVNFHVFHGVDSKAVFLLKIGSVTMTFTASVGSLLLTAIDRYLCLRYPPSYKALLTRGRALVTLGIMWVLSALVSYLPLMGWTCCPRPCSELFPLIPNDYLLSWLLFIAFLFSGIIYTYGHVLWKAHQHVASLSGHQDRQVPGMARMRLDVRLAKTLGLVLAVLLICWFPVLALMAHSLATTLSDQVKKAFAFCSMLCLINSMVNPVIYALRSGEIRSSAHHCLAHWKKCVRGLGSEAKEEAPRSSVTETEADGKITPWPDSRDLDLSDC
Chain of PKCtheta (Q04759 whole entry): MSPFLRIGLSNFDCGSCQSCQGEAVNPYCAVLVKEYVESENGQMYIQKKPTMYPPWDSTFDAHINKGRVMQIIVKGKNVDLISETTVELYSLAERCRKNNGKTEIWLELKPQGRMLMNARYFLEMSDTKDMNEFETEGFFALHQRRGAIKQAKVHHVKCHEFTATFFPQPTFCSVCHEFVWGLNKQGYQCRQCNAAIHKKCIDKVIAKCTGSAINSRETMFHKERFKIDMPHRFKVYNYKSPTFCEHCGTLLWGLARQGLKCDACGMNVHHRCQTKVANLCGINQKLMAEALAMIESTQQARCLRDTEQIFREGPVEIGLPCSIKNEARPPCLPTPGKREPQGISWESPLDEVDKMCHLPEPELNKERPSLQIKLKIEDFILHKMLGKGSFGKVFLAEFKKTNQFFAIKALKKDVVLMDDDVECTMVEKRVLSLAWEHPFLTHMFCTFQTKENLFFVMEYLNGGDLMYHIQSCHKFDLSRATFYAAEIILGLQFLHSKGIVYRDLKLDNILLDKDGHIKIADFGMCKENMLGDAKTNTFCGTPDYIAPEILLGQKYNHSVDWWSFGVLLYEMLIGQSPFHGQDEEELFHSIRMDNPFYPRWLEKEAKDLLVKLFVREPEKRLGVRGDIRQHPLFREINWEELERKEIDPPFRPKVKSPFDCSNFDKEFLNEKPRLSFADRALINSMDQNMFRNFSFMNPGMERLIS
Chain of PKCeta (P24723 whole entry): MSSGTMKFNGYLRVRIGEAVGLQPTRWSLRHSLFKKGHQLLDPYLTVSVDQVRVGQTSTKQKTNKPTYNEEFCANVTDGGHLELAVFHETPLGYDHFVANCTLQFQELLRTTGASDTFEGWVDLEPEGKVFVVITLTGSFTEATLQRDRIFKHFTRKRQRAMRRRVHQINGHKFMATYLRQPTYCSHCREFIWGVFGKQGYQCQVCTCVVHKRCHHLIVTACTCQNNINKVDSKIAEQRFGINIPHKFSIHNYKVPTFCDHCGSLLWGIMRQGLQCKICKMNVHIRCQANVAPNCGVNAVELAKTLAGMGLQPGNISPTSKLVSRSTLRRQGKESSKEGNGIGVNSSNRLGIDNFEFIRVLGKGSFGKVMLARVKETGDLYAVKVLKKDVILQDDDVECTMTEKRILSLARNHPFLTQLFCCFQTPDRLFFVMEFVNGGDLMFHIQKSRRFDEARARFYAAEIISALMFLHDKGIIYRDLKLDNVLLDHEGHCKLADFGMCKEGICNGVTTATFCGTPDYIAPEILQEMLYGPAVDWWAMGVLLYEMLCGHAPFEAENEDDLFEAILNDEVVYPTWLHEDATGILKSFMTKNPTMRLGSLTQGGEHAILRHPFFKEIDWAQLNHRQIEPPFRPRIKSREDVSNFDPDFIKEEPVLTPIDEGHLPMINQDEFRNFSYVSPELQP

| IC50 (PKCeta) [nM] | IC50 (Haspin) [nM] | CB1 (h) (agonist effect) (EC50) (CB1 (h) [1]) | CB2 (h) (agonist effect) (EC50) (CB2 (h)) | EC50 (M2 (h)) [nM] | CB1 (h) (antagonist effect) (IC50) (CB1 (h) [2]) | Difference between activities of S- and R-enantiomer against ROCK1 (ROCK1) | IC50 (PKCtheta) [nM] | Structure (SMILES) |
| --- | --- | --- | --- | --- | --- | --- | --- | --- |
| < 0.5 | 134 | Inactive | Inactive | > 10000 | Inactive | no statistically meaningful difference | 4.4 | NCc1ccc(C(=O)Nc2ccncc2F)cc1-c1cccc(C(=O)Nc2ccc(SC[C@@H]3CCOC3=O)cc2)c1 [R-enantiomer] |
| 0.9 | 297 | Inactive | Inactive | 93000 | Inactive | no statistically meaningful difference | 9.9 | NCc1ccc(C(=O)Nc2ccncc2F)cc1-c1cccc(C(=O)Nc2ccc(SC[C@H]3CCOC3=O)cc2)c1 [S-enantiomer] |
